The conditions of data set [1]: α-polymorphic hydrobromide salt, oral, cited from earlier work.
The nature of data set [2]: Tablet hardness relative to tablets made from a placebo blend. Type of data set: physicochemical. The conditions noted are these: eletriptan at 2.5% w/w of tablet. As for the experimental part:
A mixture of eletriptan hydrobromide (24.24 mg, equivalent to 20 mg of eletriptan free base), sodium bicarbonate (USP, 630 mg) and microcrystalline cellulose (Avicel PH 102, Ph. Eur., 137.76 mg) were blended for 10 minutes, passed through a […] screen and re-blended for a further 10 minutes. Screened intragranular magnesium stearate (Ph. Eur., 8 mg) was added and the mixture was lubricated for 5 minutes. […] The blend was made into a tablet by direct compression. The tablets so produced had excellent weight uniformity and friability.

Data set [3] in a line: Time lag between oral administration and maximal plasma levels, eletriptan in combination with sodium bicarbonate. Type of data set: in vivo. Conditions: administered in combination with sodium bicarbonate, in some cases. From the text: The advantage to the patient arising from the correspondingly swift amelioration of symptoms is self-evident.
For data set [4] the following is noted: 30 mg eletriptan, fasted, cited from earlier work.

Structures are written as SMILES. Read-outs that look alike come from different tables or passages of the source.

The Tmax is the time from dosing to the highest level.

On to `CN1CCC[C@@H]1Cc1c[nH]c2ccc(CCS(=O)(=O)c3ccccc3)cc12` [eletriptan, 3-{[1-methylpyrrolidin-2(R)-yl]methyl}-5-(2-phenylsulfonylethyl)-1H-indole], for which the “Tmax (time between administering a standard tablet and maximal plasma concentrations)” value in data set [1] (fasted subjects) was “about 1 hour”; in data set [1] (fed subjects), “up to 4 hours”. Further, in data set [2], the “increase in tablet hardness” value turned out to be 0.7 kp. In data set [3], the “time lag between oral administration and maximal plasma levels of drug” value was 30 min. Further, the time to peak (Tmax) in data set [4] (migraine-free patients) was 1.3 ± 1.3 h; in data set [4] (patients with migraine), 2.8 ± 2.1 h.

Source of the values: patent US20040204475A1, “Pharmaceutical combination” (priority 2003, published 2004).
